# Results as given in patent publication US8088806B2 (Achillion Pharmaceuticals, Inc., priority 2005, dated 2012).
# System: HCV replicon
# Test: Replicon based assay of HCV replication inhibition (NPT ELISA)
# Type: cell-based, Hepatitis C virus
# Details: Hepatitis C virus, Huh-7, 72 h, Table I; Huh-7 HCV replicon-containing cells, three days; read-out: Activity
# Summary of the method: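 NPT (neomycin phosphotransferase) content, proportional to replicon replication, quantified by capture ELISA on day four. Before that, replicon-bearing Huh-7 cells in G418-free screening medium were exposed three days at 37° C to compound, typically six doses from 10 to 0.03 micromolar, with equal DMSO across wells.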
row,SMILES,EC50
1,"Fc1ccc(-c2csc(Nc3ccc(Cl)c(Cl)c3)n2)cc1 [compound 47, N-(3,4-dichlorophenyl)-4-(4-fluorophenyl)thiazol-2-amine]",< 1 µM
2,"CCCCCOc1ccc(Nc2nc(CN3CCN(C)CC3)cs2)cc1C(F)(F)F [compound 217, N-(3-(trifluoromethyl)-4-(pentyloxy)phenyl)-4-((4-methylpiperazin-1-yl)methyl)thiazol-2-amine]",< 1 µM
3,"c1ccc(Oc2cccc(CCNc3nc(-c4cccnc4)cs3)c2)cc1 [compound 83, N-(3-phenoxyphenethyl)-4-(pyridin-3-yl)thiazol-2-amine]",> 10 µM
4,"Clc1ccc(-c2csc(Nc3ccc(Cl)c(Cl)c3)n2)cc1 [compound 50, N-(3,4-dichlorophenyl)-4-(4-chlorophenyl)thiazol-2-amine]",> 10 µM
5,"CCCCCOc1ccc(Nc2nc(-c3cccc(F)c3)cs2)cc1C(F)(F)F [compound 198, N-(3-(trifluoromethyl)-4-(pentyloxy)phenyl)-4-(3-fluorophenyl)thiazol-2-amine]",< 1 µM
6,"Cc1sc(Nc2cccc(Oc3ccccc3)c2)nc1-c1ccc(CC(=O)O)cc1 [compound 187, 2-(4-(2-(3-phenoxyphenylamino)-5-methylthiazol-4-yl)phenyl)acetic acid]",< 1 µM
7,"CCCCCOc1ccc(Nc2nc(-c3cn4ccccc4n3)cs2)cc1C(F)(F)F [compound 223, N-(3-(trifluoromethyl)-4-(pentyloxy)phenyl)-4-(H-imidazo[1,2-a]pyridin-2-yl)thiazol-2-amine]",< 1 µM
8,"N#Cc1cccc(Nc2nc(-c3ccc(Cl)cc3)cs2)c1 [compound 58, 3-(4-(4-chlorophenyl)thiazol-2-ylamino)benzonitrile]",> 10 µM

# Same assay, conditions: Hepatitis C virus, Huh-7, 72 h, Table III; Huh-7 HCV replicon-containing cells, three days; read-out: Activity
row,SMILES,EC50
1,"CCCCCCCCOc1ccc(Nc2nc(Cc3ccc(OC)cc3)cs2)cc1 [compound 640, 4-(4-methoxybenzyl)-N-(4-(octyloxy)phenyl)thiazol-2-amine]",> 10 µM
2,"CCCCCCCCN(C)c1ccc(Nc2nccs2)cc1C(F)(F)F [compound 624, 2-(trifluoromethyl)-N^1-methyl-N^1-octyl-N^4-(thiazol-2-yl)benzene-1,4-diamine]",< 1 µM
3,"FC(F)(F)c1cc(Nc2nc(-c3cccnc3)cs2)ccc1OCC1CCCCC1 [compound 658, N-(4-(cyclohexylmethoxy)-3-(trifluoromethyl)phenyl)-4-(pyridin-3-yl)thiazol-2-amine]",< 1 µM
4,"CCCCCCCCOc1ccc(Nc2nc(-c3ccc(Cl)cc3)cs2)cc1C(F)(F)F [compound 591, 4-(4-chlorophenyl)-N-(3-(trifluoromethyl)-4-(octyloxy)phenyl)thiazol-2-amine]",< 1 µM
5,Oc1csc(Nc2ccc(OCCCC3CCCC3)c(C(F)(F)F)c2)n1 [compound 652],1 to 10 µM
6,"CCCCCCCCOc1ccc(Nc2nc(-c3ccc4[nH]c(=O)oc(=O)c4c3)cs2)cc1C(F)(F)F [compound 665, 6-(2-(3-(trifluoromethyl)-4-(octyloxy)phenylamino)thiazol-4-yl)-1H-benzo[d][1,3]oxazine-2,4-dione]",< 1 µM
7,"CCCCCOc1ccc(Nc2nc(-c3ccc(NC)nc3)cs2)cc1C(F)(F)F [compound 535, 5-(2-(3-(trifluoromethyl)-4-(pentyloxy)phenylamino)thiazol-4-yl)-N-methylpyridin-2-amine]",< 1 µM
8,"CCCCCCCCOc1ccc(Nc2nc(-c3cnc4ccccc4c3)cs2)cc1C(F)(F)F [compound 539, N-(3-(trifluoromethyl)-4-(octyloxy)phenyl)-4-(quinolin-3-yl)thiazol-2-amine]",< 1 µM
9,"CCCCCCCCOc1ccc(Nc2nc(-c3ccc(O)c(C(N)=O)c3)cs2)cc1C(F)(F)F [compound 581, 5-(2-(3-(trifluoromethyl)-4-(octyloxy)phenylamino)thiazol-4-yl)-2-hydroxybenzamide]",< 1 µM
10,"CCCCCCCCOc1ccc(Nc2nc(-c3ccc4nccn4c3)cs2)cc1C(F)(F)F [compound 673, N-(3-(trifluoromethyl)-4-(octyloxy)phenyl)-4-(H-imidazo[1,2-a]pyridin-6-yl)thiazol-2-amine]",< 1 µM
11,"CCCCCCCCOc1ccc(Nc2nc(-c3ccc(O)c(O)c3)cs2)cc1C(F)(F)F [compound 583, 4-(2-(3-(trifluoromethyl)-4-(octyloxy)phenylamino)thiazol-4-yl)benzene-1,2-diol]",< 1 µM

# Same assay, conditions: Hepatitis C virus, replicon based assay of HCV replication inhibition; Table II; read-out: Activity
row,SMILES,EC50
1,"Cc1sc(Nc2cccc(C(F)(F)F)c2)nc1-c1ccc(OCC(=O)O)cc1 [compound 338, 2-(4-(5-methyl-2-(3-(trifluoromthyl)phenylamino)thiazol-4-yl)phenoxy)acetic acid]",> 10 µM
2,"CCCCCCCOc1ccc(Nc2nc(-c3ccc(O)c(C(N)=O)c3)cs2)cc1 [compound 448, 5-(2-(4-- (heptyloxy)phenylamino)thia-zol-4-yl)-2-hydroxybenzamide]",< 1 µM
3,"CCCCCOc1ccc(Nc2nc(-c3cc4ccccc4o3)cs2)cc1F [compound 419, 4-(benzofuran-2-yl)-N-(3-fluoro-4-(pentyloxy)phenyl)thiazol-2-amine]",1 to 10 µM
4,"CCCCCOc1ccc(Nc2nc(CN3CCC(O)CC3)cs2)cc1F [compound 291, 1-((2-(3-fluoro-4-(pentyloxy)phenylamino)thia-zol-4-yl)methyl)piperidin-4-ol]",1 to 10 µM
5,"CCCCCCCOc1ccc(Nc2nc(-c3ccc(C)nc3)cs2)cc1 [compound 369, N-(4-(heptyloxy)phenyl)-4-(6-methylpyridin-3-yl)thiazol-2-amine]",< 1 µM
6,"CCCCCCCOc1ccc(Nc2nc(-c3cc4ccccc4o3)cs2)cc1 [compound 401, 4-(benzofuran-2-yl)-N-(4-(heptyloxy)phenyl)thiazol-2-amine]",1 to 10 µM
7,"CCCCCCCOc1ccc(Nc2nc(-c3cc4cnccc4o3)cs2)cc1 [compound 362, 4-(furo[3,2-c]pyridin-2-yl)-N-(4-(heptyloxy)phenyl)thiazol-2-amine]",1 to 10 µM
8,"NC(=O)c1cc(-c2csc(Nc3ccc(OCC4CC4)c(C(F)(F)F)c3)n2)ccc1O [compound 256, 5-(2-(4-(cyclopropylmethoxy)-3-(trifluoromethyl)phenyl-amino)thiazol-4-yl)-2-hydroxybenzamide]",< 1 µM
9,"CCCCCCCCc1ccc(Nc2nc(-c3ccc(F)nc3)cs2)cc1 [compound 490, 4-(6-fluoropyridin-3-yl)-N-(4-octylphenyl)thiazol-2-amine]",< 1 µM
10,"CC/C=C\CCCCOc1ccc(Nc2nc(-c3cccnc3)cs2)cc1C(F)(F)F [compound 480, N-(4-((Z)-oct-5-enyloxy)-3-(trifluoromethyl)phenyl)-4-(pyridin-3-yl)thiazol-2-amine]",< 1 µM

# Same assay, conditions: Hepatitis C virus, replicon based assay of HCV replication inhibition; Table IV; read-out: Activity
row,SMILES,EC50
1,"COc1ncc(-c2csc(Nc3ccc(OCCCc4cccnc4)c(C(F)(F)F)c3)n2)cn1 [compound 830, N-(4-(3-(pyridin-3-yl)propoxy)-3-(trifluoromethyl)phenyl)-4-(2-methoxypyrimidin-5-yl)thiazol-2-amine]",1 to 10 µM
2,"CC(C)(C)c1cc(Nc2nc(-c3cccnc3)cs2)cc(C(C)(C)C)c1 [compound 894, N-(3,5-di-tert-butylphenyl)-4-(pyridin-3-yl)thiazol-2-amine]",< 1 µM
3,"Cc1sc(Nc2ccc(OCCCc3ccccc3)c(C(F)(F)F)c2)nc1-c1cccnc1 [compound 839, N-(4-(3-phenylpropoxy)-3-(trifluoromethyl)phenyl)-5-methyl-4-(pyridin-3-yl)thiazo1-2-amine]",< 1 µM
4,"COc1ncc(-c2csc(Nc3ccc(OCCCc4ccccc4)c(C(F)(F)F)c3)n2)cn1 [compound 831, N-(4-(3-phenylpropoxy)-3-(trifluoromethyl)phenyl)-4-(2-methoxypyrimidin-5-yl)thiazol-2-amine]",< 1 µM
5,"Fc1cc(Nc2nc(-c3ccc(-c4csnn4)cc3)cs2)ccc1OCC1CCCCC1 [compound 726, 4-(4-(1,2,3-thiadiazol-4-yl)phenyl)-N-(4-(cyclohexylmethoxy)-3-fluorophenyl)thiazol-2-amine]",1 to 10 µM
6,"FC(F)(F)c1ccc(Nc2nc(-c3cccnc3)cs2)cc1 [compound 891, N-(4-(trifluoromethyl)phenyl)-4-(pyridin-3-yl)thiazol-2-amine]",1 to 10 µM
7,"Cc1ccc(Oc2ccc(Nc3nc(-c4cccnc4)cs3)cc2)cc1 [compound 897, N-(4-(p-tolyloxy)phenyl)-4-(pyridin-3-yl)thiazol-2-amine]",< 1 µM
8,Fc1ccc(Cn2ccc3cc(Nc4nc(-c5cccnc5)cs4)ccc32)cc1 [compound 870],< 1 µM
9,"CCCCCOc1ccc2nc(NC(=O)c3cccnc3)sc2c1 [compound 832, N-(6-(pentyloxy)benzo[d]thiazol-2-yl)nicotinamide]",> 10 µM
10,"CCOC(=O)Cc1ccc(-c2csc(Nc3ccc(OCCCCc4ccccc4)c(F)c3)n2)s1 [compound 930, ethyl 2-(5-(2-(4-(4-phenylbutoxy)-3-fluorophenylamino)thiazol-4-yl)thiophen-2-yl)acetate]",1 to 10 µM
11,"CC(C)(C)c1ccc(Nc2nc(-c3cccnc3)cs2)cc1 [compound 892, N-(4-tert-butylphenyl)-4-(pyridin-3-yl)thiazol-2-amine]",1 to 10 µM
12,"CCOC(=O)Cc1ccc(-c2csc(Nc3ccc(OCCCc4ccco4)c(C(F)(F)F)c3)n2)s1 [compound 944, ethyl 2-(5-(2-(4-(3-(furan-2-yl)propoxy)-3-(trifluoromethyl)phenylamino)thiazol-4-yl)thiophen-2-yl) acetate]",< 1 µM
13,"c1ccc(CCc2ccc(Nc3nc(-c4cccnc4)cs3)cc2)cc1 [compound 757, N-(4-phenethylphenyl)-4-(pyridin-3-yl)thiazol-2-amine]",< 1 µM
14,"c1cncc(-c2csc(Nc3nc(-c4ccc5ccccc5c4)cs3)n2)c1 [compound 815, 4-(naphthalen-2-yl)-N-(4-(pyridin-3-yl)thiazol-2-yl)thiazol-2-amine]",1 to 10 µM
